Laboratory results taken from publication PMC2001825, “Pharmacokinetics of ethylenediaminemalonatoplatinum(II) (JM-40) during phase I trial” (British Journal of Cancer, 1987).
“And” between values parts separate entries of the source, which are not always exact repeats. Identical values can stand only once.

Experiments:
[1] = cited from earlier work
[2] = after cis-platin, ref Vermorken et al., cited from earlier work
[3] = human, in vivo
Description: Br. J. Cancer (1987), 56, 479-483 ? The Macmillan Press Ltd., 1987 Pharmacokinetics of ethylenediaminemalonatoplatinum(II) (JM-40) during phase I trial F. Elferink1, W.J.F. van der Vijgh1, W.W. ten Bokkel Huinink2, J.B. Vermorken', I. Klein1, B. Winograd', M.K.T. Knobf', G. Simonetti2, H.E. Gall', J.G. McVie2 & H.M. Pinedo' 1Department of Oncology, Free University Hospital, De Boelelaan 1117, 1081 HV Amsterdam; and 2Netherlands Cancer Institute, Antoni van Leeuwenhoek Hospital, Plesmanlaan 121, 1066 CX Amsterdam, The Netherlands. […] The drug was administered intravenously by short-term (10-60min) infusion. Doses ranged from 20 to 1,200 mgm-2. JM-40 was determined in plasma ultrafiltrate and urine by HPLC. Platinum (Pt) concentrations were determined in plasma, plasma ultrafiltrate, urine and red blood cells by atomic absorption spectrometry up to 5 days after administration of the drug. Ultrafilterable Pt could be determined up to 45 days after the infusion in one patient sampled over such a long period. […] During the first 6h 27+9% of the administered dose was excreted as JM-40. Cumulative platinum excretion in the urine amounted to 29+ 13%, 42+ 14% and 60+13% over the first 6h, 24h and 5 days, respectively. The uptake of platinum in red blood cells was limited, comprising only 0.24+0.12% of the administered dose. […] In particular the low emetogenic potential as determined in the ferret (Schurig et al., 1984) and the limited nephrotoxicity observed in dogs (Lelieveld et al., 1984) were reasons to conduct a phase I trial. […] Investigation of the pharmacokinetics during phase I clinical trials is important because it may help to design an optimal therapeutic regimen in phase II trials (Kovach, 1983). In the case of an analogue, pharmacokinetics can be compared with that of the parent compound. Furthermore, when preclinical information on animal pharmacokinetics is available human pharmacokinetics at low doses of the phase I trial may aid in escalating the dose as quickly and safely as possible (Collins et al., 1986, Van Hennik et al. 1987). Thus, clinical pharmacokinetics of JM-40 and platinum were investigated in plasma, plasma ultrafiltrate, urine and red blood cells. Figure 1 Structural platinum(II) (JM-40). formula of ethylenediaminemalonato- Patients and methods Patients and materials Pharmacokinetic studies were performed in 19 patients who received 28 cycles of JM-40 within a dose range of 20- 1,200mgm-2. The median age of the patients (6 females, 13 males) was 57 yrs (range 37-74 yrs). […] Renal function was decreased (creatinine clearance <60mlmin-1) at the start of only 3 treatment cycles. […] JM-40 was supplied by Johnson Matthey, Reading, Berkshire, UK. […]

[4] = test system: plasma proteins; design: method as in Van der Vijgh et al., 1986; details: ref Van der Vijgh et al., 1986; cited from earlier work
[5] = design: method as in Schurig et al., 1984; details: ferret, preclinical; ref Schurig et al., 1984; cited from earlier work
[6] = design: method as in Lelieveld et al., 1984; details: dogs, preclinical; ref Lelieveld et al., 1984; cited from earlier work

Compound: N.N.O=C([O-])C1(C(=O)[O-])CCC1.[Pt+2] [carboplatin, diammine( 1, l-cyclobutanedicarboxylato)platinum(II), reference compound]
- dose limiting toxicity ([1]; ref Joss et al., 1984): myelotoxicity

Compound: N.N.[Cl][Pt][Cl] [cis-platin, cis-diammine-dichloroplatinum(II)]
- CUE 0-6h of free Pt ([2]; 1984b): 24+5 %D
- CUE 0-24h of free Pt [2]; 1986: 28+4 %D

Compound: ethylenediaminemalonatoplatinum(II) [JM-40]
- cumulative urinary excretion after 24 h, as Pt [3]: 42+14%
- dose m-2 vs AUC relation [3]: linear pharmacokinetics
- half-life of Pt in RBCs over day 1-5 [3]: 14 + 3 days
- time of maximum Pt levels in RBCs after start of infusion [3]: 2 to 8 h
- in vitro rate constant of plasma protein binding (k in vitro of free Pt) [4]: 0.002 min⁻¹ and 0.0020 min⁻¹
- emetogenic potential [5]: low
- nephrotoxicity [6]: limited
- maximum tolerable dose ([1]; in vivo): 1,200 mg m-2
